From article PMC8306566 (Marine Drugs, 2021) come the findings set out here.

Targets include rα6/α3β4 nAChR (Rattus norvegicus, UniProt P04757+P12392+P43143); rα4β4 nAChR (Rattus norvegicus, UniProt P09483+P12392); rα4β2 nAChR (Rattus norvegicus, UniProt P09483+P12390); rα3β2 nAChR (Rattus norvegicus, UniProt P04757+P12390); rα2β2 nAChR (Rattus norvegicus, UniProt P12389+P12390); rα2β4 nAChR (Rattus norvegicus, UniProt P12389+P12392); rα7 nAChR (Rattus norvegicus, UniProt Q05941); rα9α10 nAChR (Rattus norvegicus, UniProt P43144+Q9JLB5); rα6/α3β2β3 nAChR (Rattus norvegicus, UniProt P04757+P12390+P12391+P43143).

What all share (experiment): cell-based
The target in a further experiment is rα3β4 nAChR (Rattus norvegicus, UniProt P04757+P12392). Format: cell-based.
Sequence of rα3β4 nAChR (P04757 26-499 limits assumed): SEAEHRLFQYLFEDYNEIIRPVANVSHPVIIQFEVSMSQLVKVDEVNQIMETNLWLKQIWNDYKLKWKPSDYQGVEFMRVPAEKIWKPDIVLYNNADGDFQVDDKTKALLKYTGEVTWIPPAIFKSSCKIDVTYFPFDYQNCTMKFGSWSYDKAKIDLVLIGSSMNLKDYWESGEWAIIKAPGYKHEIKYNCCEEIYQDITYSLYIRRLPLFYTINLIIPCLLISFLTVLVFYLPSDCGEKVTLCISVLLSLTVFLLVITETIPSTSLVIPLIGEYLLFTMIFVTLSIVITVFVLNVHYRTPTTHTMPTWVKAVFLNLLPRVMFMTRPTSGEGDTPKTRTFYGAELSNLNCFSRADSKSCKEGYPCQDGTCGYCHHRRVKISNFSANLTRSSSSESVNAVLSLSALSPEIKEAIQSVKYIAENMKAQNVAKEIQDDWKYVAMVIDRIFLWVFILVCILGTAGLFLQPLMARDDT
Sequence of rα3β4 nAChR (P12392 21-495 limits assumed): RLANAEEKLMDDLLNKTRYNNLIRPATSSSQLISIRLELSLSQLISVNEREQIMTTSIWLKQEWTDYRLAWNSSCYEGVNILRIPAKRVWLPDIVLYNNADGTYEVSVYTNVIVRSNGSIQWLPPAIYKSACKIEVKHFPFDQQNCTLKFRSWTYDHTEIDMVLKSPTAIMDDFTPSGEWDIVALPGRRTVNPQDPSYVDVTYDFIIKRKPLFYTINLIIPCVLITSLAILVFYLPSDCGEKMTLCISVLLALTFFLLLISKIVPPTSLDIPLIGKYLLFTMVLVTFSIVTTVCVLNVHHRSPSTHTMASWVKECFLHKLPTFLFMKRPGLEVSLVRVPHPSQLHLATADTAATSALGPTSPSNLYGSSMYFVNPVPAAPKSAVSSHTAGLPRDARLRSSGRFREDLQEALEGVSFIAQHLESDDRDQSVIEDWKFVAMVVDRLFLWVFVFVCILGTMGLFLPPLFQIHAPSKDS

Sequence of rα3β2 nAChR (P04757 26-499 limits assumed): as the sequence (P04757 26-499 limits assumed) above
Sequence of rα3β2 nAChR (P12390 25-500 limits assumed): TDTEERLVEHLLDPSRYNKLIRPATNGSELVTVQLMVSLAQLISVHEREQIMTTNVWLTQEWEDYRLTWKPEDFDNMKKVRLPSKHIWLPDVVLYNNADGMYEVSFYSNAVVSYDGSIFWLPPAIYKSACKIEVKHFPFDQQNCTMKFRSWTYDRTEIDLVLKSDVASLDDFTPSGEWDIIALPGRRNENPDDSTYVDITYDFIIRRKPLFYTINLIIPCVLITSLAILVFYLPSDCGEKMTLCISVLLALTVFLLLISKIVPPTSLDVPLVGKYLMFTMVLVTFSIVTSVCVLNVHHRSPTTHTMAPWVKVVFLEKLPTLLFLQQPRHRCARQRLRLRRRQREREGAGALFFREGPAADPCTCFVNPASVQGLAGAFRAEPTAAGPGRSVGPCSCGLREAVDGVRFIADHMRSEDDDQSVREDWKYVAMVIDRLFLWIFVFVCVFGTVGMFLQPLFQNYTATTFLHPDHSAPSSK
Sequence of rα6/α3β2β3 nAChR (P04757 whole entry, looked up): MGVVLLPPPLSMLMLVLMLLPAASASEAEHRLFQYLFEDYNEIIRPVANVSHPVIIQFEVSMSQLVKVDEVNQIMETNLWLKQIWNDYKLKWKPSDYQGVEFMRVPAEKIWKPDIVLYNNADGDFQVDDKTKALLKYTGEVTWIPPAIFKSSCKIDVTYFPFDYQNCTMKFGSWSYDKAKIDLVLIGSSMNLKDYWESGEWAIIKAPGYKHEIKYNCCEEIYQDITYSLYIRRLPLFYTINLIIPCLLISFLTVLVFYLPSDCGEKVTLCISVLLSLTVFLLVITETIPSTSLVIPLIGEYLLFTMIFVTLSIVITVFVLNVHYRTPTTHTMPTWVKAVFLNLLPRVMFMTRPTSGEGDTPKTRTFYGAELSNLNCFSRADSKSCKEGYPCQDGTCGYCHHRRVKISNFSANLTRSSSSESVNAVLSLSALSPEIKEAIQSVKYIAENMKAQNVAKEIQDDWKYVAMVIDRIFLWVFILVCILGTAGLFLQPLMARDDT
Sequence of rα6/α3β2β3 nAChR (P12390 whole entry, looked up): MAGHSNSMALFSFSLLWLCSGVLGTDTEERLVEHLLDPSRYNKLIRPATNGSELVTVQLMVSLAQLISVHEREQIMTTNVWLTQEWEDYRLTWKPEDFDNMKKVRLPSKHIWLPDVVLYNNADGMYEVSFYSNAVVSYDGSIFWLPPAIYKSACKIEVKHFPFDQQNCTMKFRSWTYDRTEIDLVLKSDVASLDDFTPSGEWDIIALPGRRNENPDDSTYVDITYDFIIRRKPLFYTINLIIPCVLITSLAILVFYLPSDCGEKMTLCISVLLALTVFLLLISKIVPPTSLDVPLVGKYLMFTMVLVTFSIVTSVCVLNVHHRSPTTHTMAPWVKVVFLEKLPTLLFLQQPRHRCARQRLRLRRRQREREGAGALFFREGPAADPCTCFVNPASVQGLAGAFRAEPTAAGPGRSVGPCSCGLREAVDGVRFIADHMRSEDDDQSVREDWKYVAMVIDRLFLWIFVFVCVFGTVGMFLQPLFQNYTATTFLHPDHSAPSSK
Sequence of rα6/α3β2β3 nAChR (P12391 whole entry, looked up): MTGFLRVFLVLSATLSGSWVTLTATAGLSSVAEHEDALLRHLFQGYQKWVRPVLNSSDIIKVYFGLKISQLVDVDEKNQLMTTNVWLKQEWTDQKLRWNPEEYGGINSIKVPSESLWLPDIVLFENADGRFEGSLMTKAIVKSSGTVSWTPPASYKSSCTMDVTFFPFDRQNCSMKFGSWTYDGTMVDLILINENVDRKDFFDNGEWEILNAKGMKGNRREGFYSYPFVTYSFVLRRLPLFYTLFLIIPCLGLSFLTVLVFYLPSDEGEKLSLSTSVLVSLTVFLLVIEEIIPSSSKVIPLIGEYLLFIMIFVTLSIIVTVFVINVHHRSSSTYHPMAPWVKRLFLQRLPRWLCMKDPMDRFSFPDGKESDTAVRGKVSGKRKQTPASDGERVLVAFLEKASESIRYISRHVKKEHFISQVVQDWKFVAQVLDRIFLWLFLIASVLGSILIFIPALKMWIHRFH
Sequence of rα6/α3β2β3 nAChR (P43143 whole entry, looked up): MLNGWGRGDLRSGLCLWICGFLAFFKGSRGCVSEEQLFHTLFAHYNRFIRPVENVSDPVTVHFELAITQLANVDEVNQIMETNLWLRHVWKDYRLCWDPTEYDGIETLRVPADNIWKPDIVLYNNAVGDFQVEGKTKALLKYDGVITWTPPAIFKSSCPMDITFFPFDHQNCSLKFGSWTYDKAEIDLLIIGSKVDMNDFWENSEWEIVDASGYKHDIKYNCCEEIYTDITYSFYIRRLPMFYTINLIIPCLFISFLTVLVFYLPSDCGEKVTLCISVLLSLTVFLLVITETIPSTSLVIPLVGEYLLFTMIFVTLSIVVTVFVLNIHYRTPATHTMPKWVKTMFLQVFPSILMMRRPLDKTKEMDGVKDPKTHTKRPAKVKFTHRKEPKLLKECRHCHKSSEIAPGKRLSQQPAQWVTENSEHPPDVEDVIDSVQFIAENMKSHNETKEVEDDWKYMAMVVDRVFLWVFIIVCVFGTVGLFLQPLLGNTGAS
Sequence of rα9α10 nAChR (P43144 26-479 limits assumed): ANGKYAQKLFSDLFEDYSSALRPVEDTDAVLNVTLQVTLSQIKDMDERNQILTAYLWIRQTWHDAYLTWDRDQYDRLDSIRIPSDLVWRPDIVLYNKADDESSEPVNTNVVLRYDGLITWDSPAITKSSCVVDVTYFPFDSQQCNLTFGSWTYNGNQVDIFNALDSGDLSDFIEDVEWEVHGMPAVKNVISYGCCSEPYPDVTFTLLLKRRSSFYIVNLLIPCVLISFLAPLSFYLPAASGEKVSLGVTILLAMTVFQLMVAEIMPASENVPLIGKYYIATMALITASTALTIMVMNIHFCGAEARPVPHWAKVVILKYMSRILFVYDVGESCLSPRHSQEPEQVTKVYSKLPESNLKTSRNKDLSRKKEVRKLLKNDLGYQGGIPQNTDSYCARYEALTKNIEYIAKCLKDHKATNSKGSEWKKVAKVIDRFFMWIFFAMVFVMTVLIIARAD
Sequence of rα9α10 nAChR (Q9JLB5 25-447 limits assumed): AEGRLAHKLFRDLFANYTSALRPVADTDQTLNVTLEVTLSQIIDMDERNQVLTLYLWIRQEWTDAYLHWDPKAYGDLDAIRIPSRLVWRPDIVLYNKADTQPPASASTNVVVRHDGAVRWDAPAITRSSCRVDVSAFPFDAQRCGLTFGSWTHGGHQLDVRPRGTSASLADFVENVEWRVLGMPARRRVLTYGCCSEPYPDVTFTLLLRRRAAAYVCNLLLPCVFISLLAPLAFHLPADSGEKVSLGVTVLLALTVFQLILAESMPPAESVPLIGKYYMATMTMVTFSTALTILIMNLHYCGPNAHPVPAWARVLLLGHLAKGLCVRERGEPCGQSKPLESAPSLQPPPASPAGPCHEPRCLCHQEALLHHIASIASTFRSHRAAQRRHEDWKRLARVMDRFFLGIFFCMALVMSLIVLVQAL
Sequence of rα2β2 nAChR (P12389 28-511 limits assumed): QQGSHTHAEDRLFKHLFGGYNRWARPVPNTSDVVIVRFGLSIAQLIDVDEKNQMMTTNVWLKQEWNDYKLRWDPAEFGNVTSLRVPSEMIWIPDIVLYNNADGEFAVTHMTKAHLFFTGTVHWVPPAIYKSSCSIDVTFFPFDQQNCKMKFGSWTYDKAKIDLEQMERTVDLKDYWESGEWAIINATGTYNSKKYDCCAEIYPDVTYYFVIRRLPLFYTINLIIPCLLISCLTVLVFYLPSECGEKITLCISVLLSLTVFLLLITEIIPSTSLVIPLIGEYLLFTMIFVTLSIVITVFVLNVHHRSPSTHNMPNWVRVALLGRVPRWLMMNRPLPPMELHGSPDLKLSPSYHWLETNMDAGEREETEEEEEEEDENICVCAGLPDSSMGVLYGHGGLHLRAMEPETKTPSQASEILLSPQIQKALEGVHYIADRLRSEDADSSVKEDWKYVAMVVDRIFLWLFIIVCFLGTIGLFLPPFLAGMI
Sequence of rα2β2 nAChR (P12390 25-500 limits assumed): as the sequence (P12390 25-500 limits assumed) above
Sequence of rα2β4 nAChR (P12389 28-511 limits assumed): as the sequence (P12389 28-511 limits assumed) above
Sequence of rα2β4 nAChR (P12392 21-495 limits assumed): as the sequence (P12392 21-495 limits assumed) above

Regarding `CC[C@H](C)[C@@H]1NC(=O)[C@H](CC(=O)O)NC(=O)[C@H](CCC(N)=O)NC(=O)[C@H](CC(N)=O)NC(=O)[C@H](CC(N)=O)NC(=O)CNC(=O)[C@H](C)NC(=O)[C@@H]2CSSC[C@H](NC(=O)CN)C(=O)N[C@@H](CSSC[C@@H](C(N)=O)NC1=O)C(=O)N[C@@H](CO)C(=O)N[C@@H](Cc1c[nH]cn1)C(=O)N1CCC[C@H]1C(=O)N[C@@H](C)C(=O)N2` [LvIF], the IC50 against rα6/α3β4 nAChR is more than 10 µM; on rα4β4 nAChR, more than 10 µM; at rα4β2 nAChR it was more than 10 µM; against rα3β4 nAChR it was more than 10 µM; on rα3β2 nAChR it was 8.98 nM; on rα2β2 nAChR, more than 10 µM. For the same compound, the IC50 at rα2β4 nAChR is more than 10 µM; against rα7 nAChR it was more than 10 µM; against rα9α10 nAChR it was more than 10 µM; on rα6/α3β2β3 nAChR it was 14.4 nM. For the same compound, the inhibition at 10 µM at rα6/α3β4 nAChR (read-out: inhibition at 10 μM) turned out to be 2.3 ± 3.3%; on rα4β4 nAChR (read-out: inhibition at 10 μM), 8.6 ± 4.2%; at rα4β2 nAChR (read-out: inhibition at 10 μM) it was 4.6 ± 2.5%; at rα3β2 nAChR (read-out: inhibition at 10 μM), 98.3 ± 0.6%; at rα2β2 nAChR (read-out: inhibition at 10 μM), 6.7 ± 4.5%; on rα2β4 nAChR (read-out: inhibition at 10 μM), 9.5 ± 2.4%. Also, the inhibition at 10 µM at rα7 nAChR (read-out: inhibition at 10 μM) was determined as 12.3 ± 4.2%; on rα9α10 nAChR (read-out: inhibition at 10 μM) it was 1.31 ± 5.2%; on rα6/α3β2β3 nAChR (read-out: inhibition at 10 μM), 98.3 ± 0.3%. Besides, at rα3β4 nAChR, the “inhibition at 1 μM” value was “no inhibition”. In addition, the figures for the inhibition at 0.01 µM at rα3β2 nAChR (read-out: inhibition at 10 nM) and on rα6/α3β2β3 nAChR (read-out: inhibition at 10 nM) were approximately 57% and approximately 39%, respectively.

What is called IC50 is the concentration that inhibits the measured activity by half. Lower therefore signals higher potency. As a reminder, the inhibition is the percentage by which the read-out fell short of the control.
